Measurements published in article PMC7174661, “Patch-Clamp Analysis of the Mitochondrial H^+ Leak in Brown and Beige Fat” (Frontiers in Physiology, 2020).

Molecular target: T1, UCP1 (Mus musculus, UniProt P12242)
T1 construct: native full-length protein in the inner mitochondrial membrane; mitoplasts from brown (or beige) fat; no tags
T1 sequence (P12242 1-307): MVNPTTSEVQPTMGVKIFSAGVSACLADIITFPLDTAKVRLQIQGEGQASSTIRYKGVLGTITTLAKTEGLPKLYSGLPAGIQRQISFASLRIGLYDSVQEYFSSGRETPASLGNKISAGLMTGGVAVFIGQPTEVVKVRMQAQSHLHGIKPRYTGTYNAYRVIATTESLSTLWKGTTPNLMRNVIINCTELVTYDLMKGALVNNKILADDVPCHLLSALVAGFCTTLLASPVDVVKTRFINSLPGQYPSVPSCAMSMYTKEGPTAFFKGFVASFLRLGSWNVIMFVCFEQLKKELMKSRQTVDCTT
Assay: whole-mitoplast patch-clamp, inhibition of H+ current
Assay type: biochemical
Settings: Mg2+-free ATP, cytosolic side; current activated by 0.2 mM oleic acid / 10 mM MβCD; symmetrical pH 7.0; competitive with fatty acid; figure reproduced from the same laboratory's Fedorenko et al. 2012

In the case of `Nc1ncnc2c1ncn2[C@@H]1O[C@H](COP(=O)(O)OP(=O)(O)OP(=O)(O)O)[C@@H](O)[C@H]1O` [ATP], the IC50 is reported as 2100 ± 100 nM.
